Results as given in patent US10722519B2, “Aerosol fluoroquinolone formulations for improved pharmacokinetics” (priority 2008, dated 2020).
In brackets after ≈: the same amount, converted by molar mass. Read-outs that look alike come from different tables or passages of the source.

Legend:
P. aeruginosa ATCC 27853 = assay: MIC, broth microdilution; format: cell-based; conditions: Pseudomonas aeruginosa, ATCC27853, P. aeruginosa ATCC27853
Description: (§1) Bacterial strains MIC testing: P. aeruginosa ATCC 27853 and NH57388A were used in these studies. MICs were determined by a broth microdilution assay according to CLSI reference methods (Methods for dilution of antimicrobial susceptibility test for bacteria that grow aerobically. Seventh Edition: Clinical and Laboratory Standards Institute (2006) M&-A7, incorporated by reference in its entirety). Assays were performed in a final volume of 100 μl. The bacterial suspensions were adjusted to yield a cell density of 5×10^5 CFU/ml. Antibiotics were prepared at a concentration equivalent to twofold the highest desired final concentration in culture medium and were then diluted directly into 96-well microtiter plates. Microtiter plates were incubated for 24 h at 35° C. and were read by using a microtiter plate reader (Molecular Devices) at 600 nm as well as by visual observation by using a microtiter plate reading mirror.

P. aeruginosa NH57388A [1] = assay: MIC, broth microdilution; format: cell-based; conditions: Pseudomonas aeruginosa, NH57388A, P. aeruginosa NIH57388A CF; read-out: MIC
Description: as §1

P. aeruginosa = conditions: simulated ELF
P. aeruginosa NH57388A [2] = assay: Chronic mouse lung infection model; format: in vivo; conditions: mice, twice daily for 72 h
Description: Bacterial cells were harvested by centrifugation (23,000×g, 30 min, at 4° C.) and resuspended in 3-6 ml of MHB. The supernatant was collected and placed in 80° C. water-bath for 30 min. […] The precipitated alginate was collected with a sterile bacterial loop and washed several times in sterile saline. The purified alginate was then resuspended in 10 ml of sterile saline and stirred vigorously to form a homogeneous suspension. […] The bacterial suspension was diluted (1:10) in the alginate suspension to yield about 10^8 CFU/ml. […] On day 4, the mice were infected using a curved bead-tipped oral gavage attached to a 1 ml syringe while under isoflurane anesthesia.

## C[C@H]1COc2c(N3CCN(C)CC3)c(F)cc3c(=O)c(C(=O)O)cn1c23 [Levofloxacin, levofloxacin]
P. aeruginosa ATCC 27853
  MIC: 1 µg/mL (≈ 2.77 µM)
P. aeruginosa NH57388A [1]
  MIC: 2 µg/mL (≈ 5.53 µM)
P. aeruginosa; 20 mg BID
  24 h AUC: 700 mg·h/L
  Cmax: 500 mg/L
P. aeruginosa; 40 mg BID
  24 h AUC: 1,400 h · mg/L
  Cmax: 1,000 mg/L
P. aeruginosa; 80 mg BID
  24 h AUC: 2,800 h · mg/L
  Cmax: 2,000 mg/L
P. aeruginosa; 120 mg BID
  24 h AUC: 4,200 h · mg/L
  Cmax: 3,000 mg/L
P. aeruginosa NH57388A [2]; intraperitoneal 15 mg/kg in saline
  log increase in bacterial counts: 0.83 log
P. aeruginosa NH57388A [2]; intraperitoneal 30 mg/kg in saline
  log increase in bacterial counts: 0.32 log
P. aeruginosa NH57388A [2]; intraperitoneal 60 mg/kg in saline
  log increase in bacterial counts: 0.15 log
